From patent US20260234136A1, “ISOXAZOLIDINES AS RIPK1 INHIBITORS AND USE THEREOF” (GENZYME CORPORATION, priority 2023, published 2026)
Converted amounts (≈) assume the structure as drawn.

Columns and labels:
physchem = settings: 50 mM phosphate buffer, 25 °C, pH 7.4, aqueous buffer, thermodynamic from solid
U937 cells = experiment: Cellular assay in U937 cells to measure the activity of RIPK1-inhibitors on cell death (necroptosis); format: cell-based; settings: Homo sapiens, U-937, 50 μM zVAD.fmk and 100 ng/ml recombinant human TNFα, overnight (18 to 24 hrs), MTS readout
Method: Absorbance of formazan was read at 490 nm. The inhibitory activity of the test compound was quantified in a concentration response curve (CRC) experiment.
Compounds were obtained as 10 mM stock solutions and were diluted 1 to 10 volumes with DMSO to yield a 1 mM solution. From this solution 2 μl were diluted with 998 μl growth medium.
U937 cells were cultured in RPMI1640 Glutamax and 10% heat inactivated FBS. […] 50 μl of compound dilutions, as described in Cellular assay in U937 cells, were added and the cell suspension incubated overnight (18 to 24 hrs) at 37° C., 5% CO2 in a humidified atmosphere (95% rH).
CellTiter 96 Aqueous reagent was mixed (100 μl PMS (phenazine methosulfate) solution/2 ml MTS (3-(4,5-[…])-5-(3-carboxymethoxyphenyl)-2-(4-sulfophenyl)-2H-tetrazolium, inner salt) solution) and 20 μl were added per well. After 4 hrs incubation at 37° C. (5% CO2 95% rH) optical density was measured at 490 nm on a microplate reader (Tecan Infinite M1000).
The % inhibition is expressed as percentage of the maximal inhibition value obtained in the absence of TNFα/zVAD.fmc.

Compound | solubility at 16 h (physchem) [µM] | IC50 (U937 cells) [µM]
Cc1nc([C@@H]2CCON2C(=O)C2CCN(c3ncnc(-n4ccnc4C)n3)CC2)cs1 [Example 23, [1-[4-(2-methylimidazol-1-yl)-1,3,5-triazin-2-yl]-4-piperidyl]-[(3S)-3-(2-methylthiazol-4-yl)isoxazolidin-2-yl]methanone] | > 1140 | 0.001
Cc1nccn1-c1nccc(N2CCC(C(=O)N3OCC[C@H]3c3cnccn3)CC2)n1 [Example 29, (S)-(1-(2-(2-methyl-1H-imidazol-1-yl)pyrimidin-4-yl)piperidin-4-yl)(3-(pyrazin-2-yl)isoxazolidin-2-yl)methanone] | > 1190 | 0.006
Cc1ccc([C@@H]2CCON2C(=O)C2CCN(c3nccc(-c4ncco4)n3)CC2)cn1 [Example 37, [(3S)-3-(6-methylpyridin-3-yl)-1,2-oxazolidin-2-yl]-[1-[4-(1,3-oxazol-2-yl)pyrimidin-2-yl]piperidin-4-yl]methanone] | 34.7 (≈ 14.6 µg/mL) | 0.041
Cc1ccc([C@@H]2CCON2C(=O)C2CCN(c3ncnc(-c4nccs4)n3)CC2)cn1 [Example 38, [(3S)-3-(6-methylpyridin-3-yl)-1,2-oxazolidin-2-yl]-[1-[4-(1,3-thiazol-2-yl)-1,3,5-triazin-2-yl]piperidin-4-yl]methanone] | 275 (≈ 120 µg/mL) | 0.051
Cc1nc([C@@H]2CCON2C(=O)C2CCN(c3cc(-c4ncnn4C)ncn3)CC2)cs1 [Example 40, [(3S)-3-(2-methyl-1,3-thiazol-4-yl)-1,2-oxazolidin-2-yl]-[1-[6-(2-methyl-1,2,4-triazol-3-yl)pyrimidin-4-yl]piperidin-4-yl]methanone] | 136 (≈ 60 µg/mL) | 0.04
Cc1ncc([C@@H]2CCON2C(=O)[C@@H]2CCN(c3cc(-c4ncnn4C)ncn3)CC23CC3)cc1F [Example 43, [(3S)-3-(5-fluoro-6-methylpyridin-3-yl)-1,2-oxazolidin-2-yl]-[(8R)-5-[6-(2-methyl-1,2,4-triazol-3-yl)pyrimidin-4-yl]-5-azaspiro[2.5]octan-8-yl]methanone] | > 1040 | 0.057
Cc1ccc([C@@H]2CCON2C(=O)[C@@H]2CCN(c3nccc(N4CCCC4=O)n3)CC23CC3)cn1 [Example 44, 1-[2-[(8R)-8-[(3S)-3-(6-methylpyridin-3-yl)-1,2-oxazolidine-2-carbonyl]-5-azaspiro[2.5]octan-5-yl]pyrimidin-4-yl]pyrrolidin-2-one] | 380 (≈ 176 µg/mL) | 0.025
Cc1ncc([C@@H]2CCON2C(=O)C2CCN(c3ncnc(-c4ccnn4C)n3)CC2)cc1F [Example 45, [(3S)-3-(5-fluoro-6-methylpyridin-3-yl)-1,2-oxazolidin-2-yl]-[1-[4-(2-methylpyrazol-3-yl)-1,3,5-triazin-2-yl]piperidin-4-yl]methanone] | 904 (≈ 409 µg/mL) | 0.001

The next lines start with results.

solubility at 16 h (physchem) [µM] | Compound | IC50 (U937 cells) [µM]
> 1190 | Cn1nccc1-c1nccc(N2CCC(C(=O)N3OCC[C@H]3c3cnccn3)CC2)n1 [Example 24, [1-[2-(2-methylpyrazol-3-yl)pyrimidin-4-yl]-4-piperidyl]-[(3S)-3-pyrazin-2-ylisoxazolidin-2-yl]methanone] | 0.009
69.2 (≈ 30.2 µg/mL) | O=C(C1CCN(c2nc(-c3cncnc3)ncc2F)CC1)N1OCC[C@H]1c1cnccn1 [Example 25, [1-(5-fluoro-2-pyrimidin-5-yl-pyrimidin-4-yl)-4-piperidyl]-[(3S)-3-pyrazin-2-ylisoxazolidin-2-yl]methanone] | 0.015
> 1190 | Cc1nccn1-c1ccnc(N2CCC(C(=O)N3OCC[C@H]3c3cnccn3)CC2)n1 [Example 30, (S)-(1-(4-(2-methyl-1H-imidazol-1-yl)pyrimidin-2-yl)piperidin-4-yl)(3-(pyrazin-2-yl)isoxazolidin-2-yl)methanone] | 0.003
> 1190 | Cc1nccn1-c1cc(N2CCC(C(=O)N3OCC[C@H]3c3cnccn3)CC2)ncn1 [Example 31, (S)-(1-(6-(2-methyl-1H-imidazol-1-yl)pyrimidin-4-yl)piperidin-4-yl)(3-(pyrazin-2-yl)isoxazolidin-2-yl)methanone] | 0.032
